“And” between values parts separate entries of the source, which are not always exact repeats. Identical values can stand only once.
How the values were obtained:
Candida species = assay: MIC on clinical isolates of Candida species, broth microdilution NCCLS M27-A (Table 3); assay type: cell-based; conditions: Candida species incl. fluconazole resistant; MIC = 90% growth inhibition
Method: The antibacterial effect of demethylated/dealkylated phenothiazine or thioxanthene compounds were studied by growth inhibition studies exposing cells to 0-32 μg/ml of drug. Each experiment was repeated in triplicate. MIC values represent the mean values of two separate triplicate experiments.
4 clinical isolates of Candida species (including 3 fluconazole resistant isolates) were subcultured for 24 h on Sabouraud glucose agar before susceptibility testing. Broth microdilution tests were performed according to NCCLS document M27-A (Ref: National Commitee for Clinical Laboratory Standards. (1997). Reference Method for Broth Dilution Antifungal Susceptibility Testing of Yeasts: Approved Standard M27-A. NCCLS, Wayne, Pa.). Microtitre plates were read spectrophotometrically at 530 nm, after mixing the wells by pipetting to resuspend yeast sediments. In this experiment, the MIC was defined as the lowest drug dilution resulting in 90% growth inhibition.

[1] = test system: E. coli MDR clinical isolates; assay: FIC index, synergy with antibiotics (Table 4a); assay type: cell-based; conditions: 8 MDR E. coli, mean, compound at ¼ of MIC
Method: (§1) The effect of the compounds was tested according to the methods described in WO2005/105145. In brief, cell growth was tested using the MIC susceptibility tests by use of the microdilution broth method in accordance to the NCCLS Guidelines (NCCLS Guidelines, Methods for Dilution Antimicrobial Susceptibility Tests for Bacteria That Grow Aerobically; Approved Standard, Sixth Edition, Volume 23; Number 2).
(§2) The Fractional Inhibitory Concentration (FIC) index were calculated for each compound as described in WO2005/105145. Synergy was defined for Fractional Inhibitory Concentration (FIC) indices less than 0.5
E. coli: 8 in vivo-selected multidrug resistant clinical isolates of E. coli. Resistant to tetracycline, beta-lactams, fluoroquinolones, chloramphenicol and aminoglycoside

[2] = test system: E. faecalis MDR/VRE clinical isolates; assay: FIC index, synergy with antibiotics (Table 4a); assay type: cell-based, Enterococcus faecalis; conditions: 8 MDR/VRE E. faecalis, mean, compound at ¼ of MIC
Method: as §1, §2
Enterococcus faecalis: 8 multidrug resistant in vivo-selected clinical isolates. […] Expressing change in the cell wall precursor target as a major resistance mechanism (VanA gene expression).

S. aureus O11 = assay: Emergence of in vitro-selected single-step ciprofloxacin resistance; assay type: cell-based; conditions: ciprofloxacin 1 μg per ml (two times the MIC); inhibitor 1 μg/ml; 24 h
Method: The frequency of mutant selection was determined to be 3×10−8 by comparing the number of colonies that grew on plates containing the anti-infective agent with the number of colonies obtained upon plating appropriate dilutions in the absence of anti-infective agents.

[3] = test system: Enterococcus faecalis BG VSE-92; assay: Mouse peritonitis/sepsis model, NMRI mice; assay type: in vivo; conditions: 3.1 mg/kg s.c.
Method: Mouse peritonitis/sepsis model.
A clinical isolate of Enterococcus faecalis BG VSE-92 from human urine was used. This strain is a multiresistant isolate.
(§3) Female NMRI mice (age, approximately 6 to 8 weeks; weight, 30±2 g) were used for the mouse […] peritonitis model (as described below).
(§4) Bacterial suspensions were prepared from fresh overnight cultures (made from frozen stock cultures) on 5% blood agar plates as described above. The inoculum for the mouse peritonitis model was prepared immediately before use and was adjusted at 540 nm of giving a density of approximately 10^7 CFU/ml. The size of the inoculum was determined by viability counting on 5% blood agar.
The mice were injected intraperitoneally with 0.5 ml of the enterococcal suspension, resulting in bacteremia within 1 h of inoculation. Antibiotic therapy was initiated 1 h after inoculation. N-dealkyl-Trans-clopenthixol was administered subcutaneously in the neck region in a volume of 0.7 ml per dose. Five mice were in each treatment group. Inoculated untreated control mice were included in all trials. (Method reference: Erlandsdottir et al; Antimicrob Agents Chemother. 2001 April; 45(4):1078-85)
The effects of the various treatment regimens were determined during 5 h of treatment by evaluation of bacterial counts in the peritoneal fluid. The bactericidal efficacies of the treatment regimens in the mouse models were calculated by subtracting the results for each treated mouse from the mean results for control mice at the end of therapy (5 h). A decrease of one thousand times (3 log 10 steps) represents maximum effect in this model and sustains strong bacterial killing effect of the compound tested.

[4] = test system: Enterococcus faecalis ENT 28 (VRE); assay: Mouse peritonitis model, neutropenic NMRI mice, enhancing effect with linezolid; assay type: in vivo
Method: A multiresistant clinical isolate of Enterococcus faecalis ENT 28 (VRE) from human urine was used.
as §3
In order to detect any synergistic effect, infected mice were treated with sub-therapeutic doses of each test compound alone or a mixture of the two compounds.
as §4
Neutropenia was introduced by pretreating the mice with cyclophosphamide (6 mg daily for three days). […] Antibiotic therapy was initiated just after inoculation. Linezolid and compound 3 was administered subcutaneously in the neck region in a volume of 0.5 ml per dose. 3 mice were in each treatment group. Inoculated untreated control mice were included in all trials. (Method reference: Erlandsdottir et al; Antimicrob Agents Chemother. 2001 April; 45(4):1078-85)
The effects of the various treatment regimens were determined during 5 h of treatment by evaluation of bacterial counts in the peritoneal fluid. After the mice were killed, peritoneal washes were performed by injecting 2 ml of sterile saline intraperitoneally, followed by massage of the abdomen and then opening of the peritoneum to collect the fluid. Peritoneal fluids were immediately diluted 10-fold in saline, from which 20 μl was plated onto 5% blood agar plates in spots, with subsequent counting of colonies after incubation overnight at 35° C. The lowest detection levels for bacterial counts in blood and peritoneal fluid were 50 and 250 CFU/ml, respectively.

[5] = treatment 0 and 2 hours, sampling 5 hours, sub-therapeutic doses as in Table 9, individual mice

Clc1ccc2c(c1)/C(=C/CCC1CCNCC1)c1ccccc1S2 [Compound 3]
MIC Mean (range) (Candida species): 1.0 (0.25-2.0) μ/ml
FIC index ([1]; with Ampicillin): 0.44
FIC index ([1]; with Ciprofloxacin): 0.44
FIC index ([1]; with Gentamycin): 0.44
FIC index ([1]; with Tetracycline): 0.44
FIC index ([2]; with Ciprofloxacin): 0.25
FIC index ([2]; with Dicloxacillin): 0.25
Frequency of emergence of resistance (S. aureus O11): <1 × 10^−10
Decrease of number of bacteria per ml of peritoneal fluid ([3]; 5 hours, vs control): 3 log 10 steps
Bacteria survived after 5 hours ([3]; p<0.05): 0.001%
CFU/ml - peritoneum ([3]; treatment 0 and 1 hour, sampling 5 hours, individual mice): 2.05E+06 CFU/ml and 2.90E+06 CFU/ml and 4.25E+06 CFU/ml
Effect on the infection / bacteria in mouse peritoneum ([4]; sub-therapeutic dose alone): did not affect the bacteria
score at sampling ([4]; treatment 0 and 2 hours, sampling 5 hours, Linezolid 1 mg/ml 0.5 ml, Compound 3 0.1 mg/ml 0.5, combination Linezolid 2 mg/ml (0.25 ml) and compound 3 0.2 mg/ml (0.25 ml), individual mice): 1 and 2 (2×)
Cfu/ml peritoneum [4, 5]: 2.35E+09 Cfu/ml and 2.63E+09 Cfu/ml and 3.15E+09 Cfu/ml
log (cfu/ml) peritoneum [4, 5]: 9.37 log (cfu/ml) and 9.42 log (cfu/ml) and 9.50 log (cfu/ml)

Reference: patent publication US8604059B2, “Thioxanthene derivatives for the treatment of infectious diseases” (BKG Pharma APS, priority 2009, dated 2013)
